Among the data in patent publication EP2090576A1, “6-halo-pyrazolo[1,5-a]pyridines, a process for their preparation and their use as metabotropic glutamate receptor (mGluR) modulators” (Merz Pharma GmbH & Co. KGaA, priority 2008, dated 2009) are IC50 values, retold here.

The term IC50 denotes the midpoint of a concentration-inhibition curve.

T1 sequence (P41594 21-1212): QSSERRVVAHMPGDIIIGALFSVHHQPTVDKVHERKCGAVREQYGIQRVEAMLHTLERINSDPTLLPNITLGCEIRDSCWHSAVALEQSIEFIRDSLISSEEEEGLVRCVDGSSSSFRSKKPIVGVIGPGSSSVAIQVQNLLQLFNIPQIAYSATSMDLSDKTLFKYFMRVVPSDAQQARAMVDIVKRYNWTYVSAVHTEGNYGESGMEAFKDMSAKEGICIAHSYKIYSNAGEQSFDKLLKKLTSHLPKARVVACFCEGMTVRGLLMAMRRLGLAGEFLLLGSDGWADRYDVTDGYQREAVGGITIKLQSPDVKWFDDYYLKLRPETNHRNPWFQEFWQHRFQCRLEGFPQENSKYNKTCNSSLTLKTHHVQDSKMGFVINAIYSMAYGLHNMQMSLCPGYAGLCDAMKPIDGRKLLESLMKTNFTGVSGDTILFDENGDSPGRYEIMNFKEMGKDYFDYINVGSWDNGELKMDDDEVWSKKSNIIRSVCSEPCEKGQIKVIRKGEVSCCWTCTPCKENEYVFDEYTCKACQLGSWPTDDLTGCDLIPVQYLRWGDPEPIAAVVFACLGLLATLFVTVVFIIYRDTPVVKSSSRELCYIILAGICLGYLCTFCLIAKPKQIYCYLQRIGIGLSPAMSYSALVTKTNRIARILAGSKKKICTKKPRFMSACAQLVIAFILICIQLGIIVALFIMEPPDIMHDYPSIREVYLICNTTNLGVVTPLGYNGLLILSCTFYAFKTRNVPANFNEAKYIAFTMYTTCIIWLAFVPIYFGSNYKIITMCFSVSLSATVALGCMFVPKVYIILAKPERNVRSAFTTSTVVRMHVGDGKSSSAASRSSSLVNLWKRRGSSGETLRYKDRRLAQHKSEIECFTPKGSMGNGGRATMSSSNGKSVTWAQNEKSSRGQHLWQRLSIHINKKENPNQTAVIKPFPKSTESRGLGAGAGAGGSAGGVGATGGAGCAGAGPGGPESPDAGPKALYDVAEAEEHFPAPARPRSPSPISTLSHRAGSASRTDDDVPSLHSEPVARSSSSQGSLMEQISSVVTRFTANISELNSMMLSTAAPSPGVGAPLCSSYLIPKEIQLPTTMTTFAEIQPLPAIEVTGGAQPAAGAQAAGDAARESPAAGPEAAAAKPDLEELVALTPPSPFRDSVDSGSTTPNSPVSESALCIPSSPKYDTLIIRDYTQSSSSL

The first assay concerns the target T1, human metabotropic glutamate receptor mGluR5 (Homo sapiens, UniProt P41594).
T1 construct: expressed in transfected cells; host or cells: CHO-K1 cells (IPTG-inducible expression)
As to the kind of experiment: Cytosolic Calcium studies with stably transfected cells (FLIPR). Particulars: CHO-K1 cells with inducible human mGluR5; test compound added 5 minutes before L-quisqualic acid (concentration giving ~80% of the maximal signal); read-out: mGluR5_FLIPR_h_ CHO_NAM IC50. The format is cell-based. Here is the method: Cytosolic Calcium studies with stably transfected cells:
Chinese hamster ovary cells (CHO-K1 cells), stably transfected for inducible expression of a human metabotropic glutamate receptor mGluR5, are seeded into black clear bottom 96 well plates at a density of 35.000 cells per well. The standard growth medium used (Dulbecco's modified Eagle Medium, DMEM plus L-proline) contains the appropriate inducer isopropyl-β-D-thiogalactopyranosid (IPTG) to achieve optimal receptor expression. One day after seeding the growth medium is exchanged for reconstituted Ca-Kit (Molecular Devices, USA) and incubated for one hour. Ca-Kit is reconstituted in an assay buffer containing 20 mM HEPES pH 7.4, glutamic-pyruvate transaminase, pyridoxal phosphate and sodium pyruvate in Hank's balanced salt solution (HBBS). Agonistic compounds to the receptor elicit increases in cytosolic calcium which can be measured as increases in fluorescence signals by use of a fluorescence imaging plate reader (Molecular Devices).
(§1) The fluorescence signal increase after addition of agonist reflects the increase of cytosolic calcium. Inconsistencies in the amount of cells per well are normalised by using the spatial uniformity correction of the FLIPR software. The mean of replicated temporal data (n=3-5) is calculated and used for graphical representation. For the evaluation of the pharmacology, the calcium changes in response to different concentrations of agonist or antagonist are determined using a maximum minus minimum (MaxMin) calculation.
(§2) All responses (RFU-values) are determined as percentage of control (= maximum response). EC50 and IC50 are calculated according the logistic equation using GraFit 5.0 (Erithacus Software, GB) or Prism 4.0 (GraphPad Software, USA).
`CC1c2ccccc2CCN1C(=O)c1cc2ccc(Br)cn2n1` (stereo not shown) [drawing 1009, (6-Bromopyrazolo[1,5-a]pyridin-2-yl)-(1-methyl-3,4-dihydro-1H-isoquinolin-2-yl)-methanone]: the IC50 was 0.218 µM.

Regarding `CC1c2ccccc2CCN1C(=O)c1cc2ccc(Cl)cn2n1` (stereo not shown) [drawing 1010, (6-Chloro-pyrazolo[1,5-a]pyridin-2-yl)-(1-methyl-3,4-dihydro-1H-isoquinolin-2-yl)-methanone], the IC50 turned out to be 0.102 µM.

In the case of `O=C(c1cc2ccc(Br)cn2n1)N1CCc2ncc(Br)cc2C1` [drawing 1011, (3-Bromo-7,8-dihydro-5H-[1,6]naphthyridin-6-yl)-(6-bromo-pyrazolo[1,5-a]pyridin-2-yl)-methanone], the IC50 was 0.306 µM.

Take `CC1c2ccsc2CCN1C(=O)c1cc2ccc(Br)cn2n1` (stereo not shown) [drawing 1012, (6-Bromo-pyrazolo[1,5-a]pyridin-2-yl)-(4-methyl-6,7-dihydro-4H-thieno[3,2-c]pyridin-5-yl)-methanone]: the IC50 was found to be 0.167 µM.

For the compound `Cc1ccc2n1CCN(C(=O)c1cc3ccc(Br)cn3n1)C2C` (stereo not shown) [drawing 1013, 6-bromo-2-[(1,6-dimethyl-3,4-dihydropyrrolo[1,2-a]pyrazin-2(1H)-yl)carbonyl]pyrazol o[1,5-a]pyridine], the 50% inhibitory concentration (IC50) is 0.178 µM.

In the case of `CC1c2ccoc2CCN1C(=O)c1cc2ccc(Br)cn2n1` (stereo not shown) [drawing 1014, (6-Bromo-pyrazolo[1,5-a]pyridin-2-yl)-(4-methyl-6,7-dihydro-4H-furo[3,2-c]pyridin-5-yl)-methanone], the IC50 is 0.166 µM.

Regarding `CN1c2ccccc2CCN1C(=O)c1cc2ccc(Br)cn2n1` [drawing 1015, (6-Bromo-pyrazolo[1,5-a]pyridin-2-yl)-(1-methyl-3,4-dihydro-1H-cinnolin-2-yl)-methanone], the IC50 turned out to be 0.41 µM.

On to `C[C@@H]1c2ccccc2CCN1C(=O)c1cc2c(Cl)cc(Cl)cn2n1` [drawing 1016, (4,6-Dichloro-pyrazolo[1,5-a]pyridin-2-yl)-((R)-1-methyl-3,4-dihydro-1H-isoquinolin-2-yl)-methanone], for which the concentration for half-maximal inhibition (IC50) turned out to be 0.114 µM.

For another assay, the target named is T2, mGluR5 receptors (Rattus norvegicus, UniProt P31424).
T2 construct: Primary astrocyte cultures are prepared from cortices of newborn rats; endogenous in cells; host or cells: primary cortical astrocytes from Sprague-Dawley rat pups (2-4 d old), 14-15 DIV
T2 sequence (P31424 21-1203): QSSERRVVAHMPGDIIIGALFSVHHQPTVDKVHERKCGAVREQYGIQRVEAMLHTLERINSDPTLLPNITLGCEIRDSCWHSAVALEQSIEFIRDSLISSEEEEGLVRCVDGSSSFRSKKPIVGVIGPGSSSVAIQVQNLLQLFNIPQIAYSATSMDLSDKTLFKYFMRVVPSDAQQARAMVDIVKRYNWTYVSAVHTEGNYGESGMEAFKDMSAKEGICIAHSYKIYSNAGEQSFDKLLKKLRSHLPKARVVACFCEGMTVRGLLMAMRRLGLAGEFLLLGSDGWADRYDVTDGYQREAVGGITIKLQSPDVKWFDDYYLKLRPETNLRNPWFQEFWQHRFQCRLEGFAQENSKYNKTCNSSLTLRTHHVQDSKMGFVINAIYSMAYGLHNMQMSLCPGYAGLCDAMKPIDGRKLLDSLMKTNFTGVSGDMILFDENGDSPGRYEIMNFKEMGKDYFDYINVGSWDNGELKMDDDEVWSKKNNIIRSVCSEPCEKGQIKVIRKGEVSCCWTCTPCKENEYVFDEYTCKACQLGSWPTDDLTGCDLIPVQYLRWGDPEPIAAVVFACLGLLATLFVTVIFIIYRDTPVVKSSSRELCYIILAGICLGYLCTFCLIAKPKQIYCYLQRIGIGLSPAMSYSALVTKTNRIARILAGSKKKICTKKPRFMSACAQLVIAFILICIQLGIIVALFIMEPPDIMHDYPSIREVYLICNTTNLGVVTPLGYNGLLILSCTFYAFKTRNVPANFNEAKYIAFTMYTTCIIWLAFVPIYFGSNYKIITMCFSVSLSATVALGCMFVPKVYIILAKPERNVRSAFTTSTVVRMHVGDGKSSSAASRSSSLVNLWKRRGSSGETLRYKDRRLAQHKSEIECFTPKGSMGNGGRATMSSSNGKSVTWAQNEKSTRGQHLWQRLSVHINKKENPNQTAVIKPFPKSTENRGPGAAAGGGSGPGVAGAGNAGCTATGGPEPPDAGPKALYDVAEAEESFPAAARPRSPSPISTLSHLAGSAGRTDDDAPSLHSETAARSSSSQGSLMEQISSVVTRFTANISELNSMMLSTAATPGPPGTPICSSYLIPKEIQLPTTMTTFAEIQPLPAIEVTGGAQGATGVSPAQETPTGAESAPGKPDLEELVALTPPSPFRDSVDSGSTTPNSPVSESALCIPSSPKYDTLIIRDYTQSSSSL
As to the kind of experiment: Cytosolic Calcium studies with astrocytes (astrocyte culture test, FLIPR). The class given is cell-based. The following applies: primary rat cortical astrocytes, 14-15 DIV; 10 minutes pre-incubation, L-quisqualate 100 nM; read-out: mGluR5_FLIPRr_rpA IC50. Here is the method:
Primary astrocyte cultures are prepared from cortices of newborn rats as described by Booher and Sensenbrenner (1972, Neurobiology 2(3):97-105). Briefly, Sprague-Dawley rat pups (2 - 4 d old) are decapitated and neocortices are dissected, disintegrated with a nylon filter (pore size 80 µm) and carefully triturated. The cell suspension is plated on poly-D-lysine pre-coated flasks (Costar, Netherlands) and cultivated in Dulbecco's Modified Eagle's Medium (DMEM, Invitrogen, Germany) supplemented with 10% foetal calf serum (FCS, Sigma, Germany), 4 mM glutamine and 50 µg/ml gentamycin (both Biochrom, Germany) at 37°C in a humidified atmosphere of 5% CO2 / 95% air for 7 d with exchanging the medium at day 2 and 6.
After 7 days in vitro (DIV), cells are shaken overnight at 250 rpm to remove oligodendrocytes and microglia. The next day, astrocytes are rinsed twice with CMF-PBS (calcium- and magnesium-free phosphate buffered saline, Biochrom, Germany), trypsinized and subplated on poly-D-lysine pre-coated 96-well plates (Greiner, Germany) at a density of 40,000 cells/well. 24 h after establishing the secondary culture the astrocytes are rinsed with PBS^++ (phosphate buffered saline, Biochrom, Germany) and fed with astrocyte-defined medium (ADM) consisting of DMEM containing 1x G5-supplement (Invitrogen, Germany), 0.5 µg/ml heparan sulfate, and 1.5 µg/ml fibronectin (both Sigma, Germany) (Miller et al., (1993) Brain Res. 618(1):175-8). 3 d later the medium is exchanged and the cells incubated for another 2-3 d, so that at the time of experiments astrocytes are 14-15 DIV.
Cytosolic Calcium studies with astrocytes:
The increase of cytosolic calcium after stimulation with the mGluR5 agonist L-quisqualate is measured using a fluorometric imaging plate reader (FLIPR) and the Ca-Kit (both Molecular Devices). Prior to addition of agonist or antagonist the medium is aspirated and cells are loaded for 2 h at RT with 150 µl of loading buffer consisting of Ca-sensitive dye reconstituted in sodium chloride (123 mM), potassium chloride (5.4 mM), magnesium chloride (0.8 mM), calcium chloride (1.8 mM), D-glucose (15 mM), and HEPES (20 mM), pH 7.3. Subsequently, plates are transferred to FLIPR to detect calcium increase with the addition of L-quisqualate (100 nM) measured as relative fluorescence units (RFU). If antagonists are tested, these compounds are pre-incubated for 10 minutes at RT before addition of the respective agonist.
as §1, §2
As for `CC1c2ccccc2CCN1C(=O)c1cc2ccc(Br)cn2n1` (stereo not shown) [drawing 1017, (6-Bromo-pyrazolo[1,5-a]pyridin-2-yl)-(1-methyl-3,4-dihydro-1H-isoquinolin-2-yl)-methanone], the IC50 turned out to be 0.151 µM.

With `CC1c2ccccc2CCN1C(=O)c1cc2ccc(Cl)cn2n1` (stereo not shown) [drawing 1018, (6-Chloro-pyrazolo[1,5-a]pyridin-2-yl)-(1-methyl-3,4-dihydro-1H-isoquinolin-2-yl)-methanone], the IC50 is 0.045 µM.

On to `O=C(c1cc2ccc(Br)cn2n1)N1CCc2ncc(Br)cc2C1` [drawing 1019, (3-Bromo-7,8-dihydro-5H-[1,6]naphthyridin-6-yl)-(6-bromo-pyrazolo[1,5-a]pyridin-2-yl)-methanone], for which the IC50 was determined as 0.108 µM.

For `CC1c2ccsc2CCN1C(=O)c1cc2ccc(Br)cn2n1` (stereo not shown) [drawing 1020, (6-Bromo-pyrazolo[1,5-a]pyridin-2-yl)-(4-methyl-6,7-dihydro-4H-thieno[3,2-c]pyridin-5-yl)-methanone], the IC50 was found to be 0.051 µM.

As to `Cc1ccc2n1CCN(C(=O)c1cc3ccc(Br)cn3n1)C2C` (stereo not shown) [drawing 1021, 6-bromo-2-[(1,6-dimethyl-3,4-dihydropyrrolo[1,2-a]pyrazin-2(1 H)-yl)carbonyl]pyrazolo[1,5-a]pyridine], the IC50 stood at 0.148 µM.

`CC1c2ccoc2CCN1C(=O)c1cc2ccc(Br)cn2n1` (stereo not shown) [drawing 1022, (6-Bromo-pyrazolo[1,5-a]pyridin-2-yl)-(4-methyl-6,7-dihydro-4H-furo[3,2-c]pyridin-5-yl)-methanone]: the IC50 turned out to be 0.0425 µM.

Regarding `CN1c2ccccc2CCN1C(=O)c1cc2ccc(Br)cn2n1` [drawing 1023, (6-Bromo-pyrazolo[1,5-a]pyridin-2-yl)-(1-methyl-3,4-dihydro-1H-cinnolin-2-yl)-methanone], the IC50 was 0.156 µM.

For the next assay, the target named is T3, transmembrane allosteric modulatory sites of mGluR5 receptors (Rattus norvegicus, UniProt P31424).
T3 construct: from tissue; host or cells: rat cerebral cortex membranes (male Sprague-Dawley rats)
T3 sequence (P31424 21-1203): as above
The assay can be described thus: [3H]-MMPEP binding assay in rat cortical membranes. Particulars: radioligand [3H]-MMPEP, 60 minutes at room temperature, read-out: mGluR5_M_ MPEP_r_CTX_ IC50. As to the method: Preparation of rat cortical membranes:
The resulting pellet is re-suspended in 20 volumes of distilled water and centrifuged for 20 minutes at 8000 x g. […] All centrifugation steps are carried out at 4°C.
Alternatively, assays are performed with [^3H]-MMPEP (2-(3-methoxyphenylethynyl)-6-methylpyridine hydrochloride) as radioligand. […] Incubations are terminated using a Millipore filter system.
Turning to `CC1c2ccccc2CCN1C(=O)c1cc2ccc(Br)cn2n1` (stereo not shown) [drawing 1024, (6-Bromo-pyrazolo[1,5-a]pyridin-2-yl)-(1-methyl-3,4-dihydro-1H-isoquinolin-2-yl)-methanone], the IC50 was found to be 0.4 µM.

In the case of `CC1c2ccccc2CCN1C(=O)c1cc2ccc(Cl)cn2n1` (stereo not shown) [drawing 1025, (6-Chloro-pyrazolo[1,5-a]pyridin-2-yl)-(1-methyl-3,4-dihydro-1H-isoquinolin-2-yl)-methanone], the IC50 worked out at 0.26 µM.

Turning to `CC1c2ccoc2CCN1C(=O)c1cc2ccc(Br)cn2n1` (stereo not shown) [drawing 1026, (6-Bromo-pyrazolo[1,5-a]pyridin-2-yl)-(4-methyl-6,7-dihydro-4H-furo[3,2-c]pyridin-5-yl)-methanone], the IC50 is 0.655 µM.

As to `C[C@@H]1c2ccccc2CCN1C(=O)c1cc2c(Cl)cc(Cl)cn2n1` [drawing 1027, (4,6-Dichloro-pyrazolo[1,5-a]pyridin-2-yl)-((R)-1-methyl-3,4-dihydro-1H-isoquinolin-2-yl)-methanone], the IC50 was found to be 0.043 µM.
